Measured values published in patent publication US11648208B2, “Nano complex comprising a nano drug delivery matrix; and a ginseng extract or a ginsenoside isolated therefrom” (priority 2016, dated 2023).

Tests used:
[1] = system: Salmonella enterica [ATCC 13076]; experiment: Antimicrobial activity, disk diffusion method on Muller-Hinton agar; type: cell-based; details: in mm
[2] = system: Escherichia coli [ATCC 10798]; experiment: as above; type: cell-based; details: in mm
[3] = system: Vibrio parahaemolyticus [ATCC 33844]; experiment: as above; type: cell-based; details: in mm
[4] = system: keratinocyte (HaCaT Skin); experiment: Cytotoxicity by MTT assay on keratinocytes; details: up to a concentration of 15 μM
[5] = Solubility for water (microscopic images, HPLC of supernatants); type: physicochemical
Description: High water solubility advantageously enhances pharmacokinetic properties such as bioavailability, membrane permeability, therapeutic activity, etc.

| SMILES | Zone of inhibition [1] | Zone of inhibition [2] | Zone of inhibition [3] | cytotoxicity on keratinocyte cell line [4] | solubility for water [5] |
| --- | --- | --- | --- | --- | --- |
| CN(C)[C@@H]1C(=O)C(C(N)=O)=C(O)[C@@]2(O)C(=O)C3=C(O)c4c(O)cccc4[C@@](C)(O)[C@H]3C[C@@H]12 [Tetracyclin, tetracycline] | 30 ± 0.3 | 20 ± 0.1 | 25 ± 0.6 | – | – |
| CC(C)=CCC[C@](C)(O)[C@H]1CC[C@]2(C)[C@@H]1[C@H](O)C[C@@H]1[C@@]3(C)CC[C@H](O[C@@H]4O[C@H](CO)[C@@H](O)[C@H](O)[C@H]4O)C(C)(C)[C@@H]3CC[C@]12C [Rh2, 20(S)-protopanaxdiol-3-O-β-D-glucopyranoside] | – | – | – | showed cytotoxicity | insoluble even at a low concentration |
| CC(C)=CCC[C@](C)(O[C@@H]1O[C@H](CO)[C@@H](O)[C@H](O)[C@H]1O)[C@H]1CC[C@]2(C)[C@@H]1[C@H](O)C[C@@H]1[C@@]3(C)CC[C@H](O)C(C)(C)[C@@H]3CC[C@]12C [CK, ginsenoside Compound K] | – | – | – | – | insoluble even at a low concentration |
